≈ marks a conversion by molar mass, not a printed value. Read-outs that look alike come from different tables or passages of the source. Each block holds one compound with its values, some of them ahead of it. Residues, ends and D or L forms follow the SMILES beside them.
Key:
PAO1 = assay: microbe, parasite or virus in culture; format: cell-based, Pseudomonas aeruginosa
Procedure: (§1) Strains used in the study were isolates of methicillin-resistant Staphylococcus aureus (MRSA); USA300 LAC, BH1CC ([O’Neill et al., 2007]), methicillin-sensitive S. aureus (MSSA); SH1000 ([Horsburgh et al., 2002]) and BH48 ([O’Neill et al., 2007]); and Pseudomonas aeruginosa PAO1 (ATCC […]). Clinical isolates were obtained from a previous collection of isolates of infected wounds. Bacteria were grown aerobically at 37°C with shaking at 200 rpm in Brain Heart Infusion (BHI, Oxoid, Ireland). Selective media, Mannitol Salt Agar (SLS, Ireland) and MacConkey agar (SLS, Ireland), for re-isolation of bacterial strains from mixed species biofilms were used. Bolton Broth (Fannin, Ireland) supplemented with 50% bovine heparin plasma (TebuBio, UK), and 5% laked horse blood (Sigma-Aldrich, Ireland) was used to mimic in vivo conditions for static antibiofilm testing. For dynamic biofilm growth Simulated Wound Fluid (SWF) prepared as described previously with slight modification, 3% v/v fetal bovine serum in maximum recovery diluent (Merck, Ireland) was used ([Barbour et al., 2016]).
(§2) Minimum inhibitory concentration (MIC) was determined aerobically using the broth microdilution assay as recommended by the Clinical and Laboratory Standards Institute (CLSI) ([CLSI, 2018]). Briefly, 2-fold serial dilutions of the antimicrobial peptides of interest and conventional antibiotics were prepared in Mueller-Hinton broth (MHB) (Merck, Ireland) in a 96-well round bottom polypropylene plate (ThermoFisher, Ireland). Diluted bacterial suspensions in sterile PBS (Sigma, Ireland) were added to each well resulting in a final cell density of approximately 10^5 colony forming units (CFU)/mL. Microplates were incubated statically for 18 h at 37°C. In each assay, inoculated medium without antimicrobials and uninoculated medium served as growth and sterility controls, respectively. Conventional antibiotics, gentamicin (Merck, Ireland) and mupirocin (SLS, UK), were tested as comparator antimicrobials. The MIC value was defined as the lowest antimicrobial concentration showing no visible growth relative to positive (no antimicrobial agent) and negative controls (BHI alone). Experiments were conducted in triplicate, and independent replicates were performed three times to yield n = 3.

USA300 = assay: microbe, parasite or virus in culture; format: cell-based, Staphylococcus aureus
Procedure: as §1, §2

BH48 = assay: microbe, parasite or virus in culture; format: cell-based, Staphylococcus aureus; settings: 18 h
Procedure: as §1, §2

BH1CC = assay: microbe, parasite or virus in culture; format: cell-based, Staphylococcus aureus; settings: 18 h
Procedure: as §1, §2

SH1000 = assay: microbe, parasite or virus in culture; format: cell-based, Staphylococcus aureus
Procedure: as §1, §2

THP-1 = format: cell-based, human; settings: THP-1; 24 h, 37°C, 5% CO2; ethanol control
Procedure: Sigma-Aldrich, Ireland). […] At 90% confluence, cells were centrifuged and diluted to a 1:5 ratio with complete RPMI. THP-1 cells were seeded in a 96 well plate at a density of 1 × 10^5 cells/mL with increasing concentrations of D-Bac8c^2,5 Leu. Cells were incubated for 24 h at 37°C with 5% CO2, 95% humidity. […] The absorbance was measured at 595 nm in a microplate spectrophotometer. Cell viability was calculated as a percentage of a control treated with PBS. Two technical replicates were performed each day on three independent days.

HaCaT = assay: MTT cell viability; format: cell-based, human; settings: 24 h, 37°C, 5% CO2, ethanol control
HUVEC = assay: MTT cell viability; format: cell-based, human; settings: 24 h, 37°C, 5% CO2, ethanol control
S. aureus strains = format: cell-based, Staphylococcus aureus; settings: 2 MRSA and 2 MSSA strains, summed up in text
Procedure: as §1
Minimum inhibitory concentration (MIC) was determined aerobically using the broth microdilution assay as recommended by the Clinical and Laboratory Standards Institute (CLSI) ([CLSI, 2018]). […]

[1] = Pseudomonas aeruginosa, PAO1, MHB, about 10^5 CFU/mL, 18 h, 37°C, n = 3, read-out: MIC
[2] = Staphylococcus aureus, USA300 (MRSA), MHB, about 10^5 CFU/mL, 18 h, 37°C, n = 3, read-out: MIC
[3] = Staphylococcus aureus, BH48 (MSSA), MHB, about 10^5 CFU/mL, 37°C, n = 3, read-out: MIC
[4] = Staphylococcus aureus, BH1CC (MRSA), MHB, about 10^5 CFU/mL, 37°C, n = 3, read-out: MIC
[5] = Staphylococcus aureus, SH1000 (MSSA), MHB, about 10^5 CFU/mL, 18 h, 37°C, n = 3, read-out: MIC
[6] = PAO1, MHB, about 10^5 CFU/mL, 18 h, 37°C, n = 3
[7] = USA300 (MRSA), MHB, about 10^5 CFU/mL, 18 h, 37°C, n = 3
[8] = BH48 (MSSA), MHB, about 10^5 CFU/mL, 37°C, n = 3
[9] = BH1CC (MRSA), MHB, about 10^5 CFU/mL, 37°C, n = 3
[10] = SH1000 (MSSA), MHB, about 10^5 CFU/mL, 18 h, 37°C, n = 3

- MIC (PAO1; PAO1, 18 h): 64 µg/mL (≈ 52.1 µM)
- MIC (USA300; USA300, 18 h): 128 µg/mL (≈ 104 µM)
- MIC (BH48): 128 µg/mL (≈ 104 µM)
- MIC (BH1CC): 128 µg/mL (≈ 104 µM)
- MIC (SH1000; SH1000, 18 h): 128 µg/mL (≈ 104 µM)
SMILES: CC[C@H](C)[C@H](NC(=O)[C@H](CCCNC(=N)N)NC(=O)[C@H](Cc1ccccc1)NC(=O)[C@H](CCCNC(=N)N)NC(=O)[C@@H](N)CCCCN)C(=O)N[C@@H](CCCNC(=N)N)C(=O)N[C@H](C(=O)N[C@@H](CCCNC(=N)N)C(=O)N[C@H](C(N)=O)C(C)C)C(C)C [1,037] (H-KRFRIRVRV-NH2)

- MIC (PAO1; PAO1, 18 h): >400 µg/mL
- MIC (USA300; USA300, 18 h): >400 µg/mL
- MIC (BH48): >400 µg/mL
- MIC (BH1CC): >400 µg/mL
- MIC (SH1000; SH1000, 18 h): >400 µg/mL
SMILES: CC(C)[C@H](NC(=O)[C@H](CCCCN)NC(=O)[C@H](CCCCN)NC(=O)[C@@H]1CCCN1C(=O)[C@H](CCCCN)NC(=O)[C@@H](NC(=O)[C@@H]1CCCN1C(=O)[C@H](CCCCN)NC(=O)[C@@H](NC(=O)[C@H](CCCCN)NC(=O)[C@H](CCCCN)NC(=O)[C@H](CO)NC(=O)[C@@H]1CCCN1)[C@@H](C)O)C(C)C)C(=O)N[C@@H](C)C(N)=O [DRGN-1] (H-PSKKTKPVKPKKVA-NH2)

- IC50 (50% cell viability), MTT (THP-1): 1%
SMILES: CCO [Ethanol, reference compound]
- IC50 (50% cell viability), MTT (HaCaT): 1.2%
- IC50 (50% cell viability), MTT (HUVEC): 0.4%

- MIC (PAO1; [1]): > 512 µg/mL
- MIC (USA300; [2]): 0.03 µg/mL (≈ 0.0581 µM)
- MIC (BH48; [3]): 4 µg/mL (≈ 7.74 µM)
- MIC (BH1CC; [4]): 2 µg/mL (≈ 3.87 µM)
- MIC (SH1000; [5]): 0.06 µg/mL (≈ 0.116 µM)
SMILES: CC(=O)O[C@H]1C[C@@]2(C)[C@@H](C[C@@H](O)[C@H]3[C@@]4(C)CC[C@@H](O)[C@@H](C)[C@@H]4CC[C@@]32C)/C1=C(\CCC=C(C)C)C(=O)O [Fusidic acid]

- MIC (PAO1; [1]): 1 µg/mL (≈ 2.09 µM)
- MIC (USA300; [2]): 0.5 µg/mL (≈ 1.05 µM)
- MIC (BH48; [3]): 0.25 µg/mL (≈ 0.523 µM)
- MIC (BH1CC; [4]): 32 µg/mL (≈ 67 µM)
- MIC (SH1000; [5]): 0.25 µg/mL (≈ 0.523 µM)
SMILES: CNC(C)C1CCC(N)C(OC2C(N)CC(N)C(OC3OCC(C)(O)C(NC)C3O)C2O)O1 (stereo not drawn) [Gentamicin, gentamicin]

SMILES: CC[C@H](C)[C@H](NC(=O)[C@H](CCCNC(=N)N)NC(=O)[C@@H](NC(=O)[C@H](C)NC(=O)[C@@H](NC(=O)[C@@H](NC(=O)[C@H](CC(C)C)NC(=O)[C@H](CCCNC(=N)N)NC(=O)[C@@H](N)C(C)C)[C@@H](C)CC)C(C)C)C(C)C)C(=O)N[C@@H](Cc1c[nH]c2ccccc12)C(=O)N[C@@H](CCCNC(=N)N)C(=O)N[C@@H](CCCNC(=N)N)C(N)=O [IDR-1018] (H-VRLIVAVRIWRR-NH2)
- MIC (PAO1; [6]): 64 µg/mL (≈ 41.7 µM)
- MIC (USA300; [7]): 64 µg/mL (≈ 41.7 µM)
- MIC (BH48; [8]): 128 µg/mL (≈ 83.3 µM)
- MIC (BH1CC; [9]): 128 µg/mL (≈ 83.3 µM)
- MIC (SH1000; [10]): 64 µg/mL (≈ 41.7 µM)

- MIC (PAO1; [1]): > 2050 µg/mL
- MIC (USA300; [2]): 0.06 µg/mL (≈ 0.12 µM)
- MIC (BH48; [3]): 0.03 µg/mL (≈ 0.0599 µM)
- MIC (BH1CC; [4]): 2 µg/mL (≈ 3.99 µM)
- MIC (SH1000; [5]): 0.03 µg/mL (≈ 0.0599 µM)
SMILES: C/C(=C\C(=O)OCCCCCCCCC(=O)O)C[C@@H]1OC[C@H](C[C@@H]2O[C@H]2[C@@H](C)[C@H](C)O)[C@@H](O)[C@H]1O [Mupirocin, mupirocin]

SMILES: CC[C@H](C)[C@H](NC(=O)CNC(=O)[C@H](CCCCN)NC(=O)[C@H](Cc1ccc(O)cc1)NC(=O)[C@H](CS)NC(=O)[C@@H](NC(=O)[C@H](CCCCN)NC(=O)[C@H](Cc1c[nH]c2ccccc12)NC(=O)[C@H](CS)NC(=O)[C@H](Cc1ccccc1)NC(=O)[C@@H](N)CCCNC(=N)N)C(C)C)C(=O)N[C@@H](CS)C(=O)N[C@@H](Cc1ccccc1)C(=O)N[C@@H](CCCCN)C(=O)N[C@@H](CCCCN)C(=O)N[C@@H](CS)C(=O)N[C@@H](CCCCN)C(N)=O [RP557] (H-RFCWKVCYKGICFKKCK-NH2; N-terminus assumed)
- MIC (PAO1; [6]): 8 µg/mL (≈ 3.74 µM)
- MIC against S. aureus strains (S. aureus strains): 16 µg/mL (≈ 7.48 µM)
- MIC (USA300; [7]): 16 µg/mL (≈ 7.48 µM)
- MIC (BH48; [8]): 16 µg/mL (≈ 7.48 µM)
- MIC (BH1CC; [9]): 16 µg/mL (≈ 7.48 µM)
- MIC (SH1000; [10]): 16 µg/mL (≈ 7.48 µM)

Reference: publication PMC12058896, “Potent antimicrobial activity of hydrogel loaded with the antimicrobial peptide, D-Bac8c^2,5 Leu, against monospecies and polymicrobial biofilms of Staphylococcus aureus and Pseudomonas aeruginosa” (Frontiers in Microbiology, 2025)
